Measurements reported in ChEMBL document CHEMBL5154762, “Design, synthesis, and tumor drug resistance reversal activity of novel hederagenin derivatives modified by nitrogen-containing heterocycles” (Eur J Med Chem, 2022).
Active and inactive are the calls of the source. No cut-off for these calls is given here.

Legend:
[1] = Cytotoxicity against human KBV cells assessed as decrease in cell survival rate at 10 uM measured after 72 hrs in presence of paclitaxel by MTT assay; assay type: functional; conditions: read-out: Survival
[2] = Cytotoxicity against human KBV cells assessed as decrease in cell survival rate at 10 uM measured after 72 hrs by MTT assay; assay type: functional; conditions: read-out: Survival
[3] = Antitumor activity against human KBV cells xenografted in BALB/c mouse assessed as tumor suppression rate at 30 mg/kg administered once every three days; assay type: functional
[4] = Cytotoxicity against human KBV cells assessed as decrease in cell survival rate at 100 nM measured after 72 hrs by MTT assay; assay type: functional; conditions: read-out: Survival
[5] = target: ATP-dependent translocase ABCB1 (Homo sapiens, UniProt P08183); test: Inhibition of P-glycoprotein mediated Rhodamine-123 efflux in human KBV cells assessed as increase in rhodamine-123 accumulation incubated for 3 hrs in presence of rhodamine-123 by flow cytometry analysis; assay type: cell-based; conditions: DDE = dose-dependent effect
Chain of ATP-dependent translocase ABCB1 (P08183 whole entry): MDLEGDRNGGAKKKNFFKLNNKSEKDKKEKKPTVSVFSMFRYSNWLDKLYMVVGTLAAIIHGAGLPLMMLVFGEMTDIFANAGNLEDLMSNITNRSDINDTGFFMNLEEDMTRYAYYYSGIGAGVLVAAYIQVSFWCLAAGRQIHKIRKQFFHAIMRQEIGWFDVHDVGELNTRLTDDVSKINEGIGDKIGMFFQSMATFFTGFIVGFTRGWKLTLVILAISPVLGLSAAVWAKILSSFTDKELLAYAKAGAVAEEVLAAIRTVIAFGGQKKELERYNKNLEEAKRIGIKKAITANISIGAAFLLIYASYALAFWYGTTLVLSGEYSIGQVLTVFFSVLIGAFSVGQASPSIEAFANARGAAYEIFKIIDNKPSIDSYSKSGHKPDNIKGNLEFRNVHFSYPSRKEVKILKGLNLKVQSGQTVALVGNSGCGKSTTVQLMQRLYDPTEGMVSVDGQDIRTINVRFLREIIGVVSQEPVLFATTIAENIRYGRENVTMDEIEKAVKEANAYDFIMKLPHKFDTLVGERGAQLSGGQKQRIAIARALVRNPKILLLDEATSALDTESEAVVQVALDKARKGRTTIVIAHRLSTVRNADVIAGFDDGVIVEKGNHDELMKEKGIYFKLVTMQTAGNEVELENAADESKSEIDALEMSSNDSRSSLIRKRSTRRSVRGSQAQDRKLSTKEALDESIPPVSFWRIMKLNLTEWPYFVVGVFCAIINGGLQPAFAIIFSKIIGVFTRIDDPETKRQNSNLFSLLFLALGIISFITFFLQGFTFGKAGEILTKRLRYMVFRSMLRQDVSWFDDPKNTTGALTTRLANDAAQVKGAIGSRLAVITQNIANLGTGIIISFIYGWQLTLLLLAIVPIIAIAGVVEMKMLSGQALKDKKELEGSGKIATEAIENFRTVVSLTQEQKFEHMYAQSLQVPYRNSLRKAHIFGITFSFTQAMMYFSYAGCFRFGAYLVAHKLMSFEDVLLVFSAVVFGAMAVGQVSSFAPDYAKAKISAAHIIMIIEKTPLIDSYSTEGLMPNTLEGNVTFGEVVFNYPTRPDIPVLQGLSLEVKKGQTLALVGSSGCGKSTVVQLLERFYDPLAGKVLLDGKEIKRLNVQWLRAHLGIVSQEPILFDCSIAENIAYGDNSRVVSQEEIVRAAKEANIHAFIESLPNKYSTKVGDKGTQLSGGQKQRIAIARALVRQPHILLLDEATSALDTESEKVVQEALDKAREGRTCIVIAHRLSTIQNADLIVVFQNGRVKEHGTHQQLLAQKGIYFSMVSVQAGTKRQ

KBV [6] = test: Induction of apoptosis in human KBV cells at 10 uM measured after 24 hrs in presence of paclitaxel by flow cytometry analysis; assay type: functional, cell-based
KBV [7] = test: Induction of cell cycle arrest in human KBV cells assessed as accumulation at G2/M phase measured after 24 hrs by propidium iodide/RNase staining based flow cytometry analysis; assay type: functional
[8] = Induction of cell cycle arrest in human KBV cells assessed as accumulation at sub-G0 phase measured after 24 hrs by propidium iodide/RNase staining based flow cytometry analysis (reference value: 6.18%); assay type: functional
[9] = Antitumor activity against human KBV cells xenografted in BALB/c mouse assessed as tumor suppression rate at 10 mg/kg, ip qd administered in presence of paclitaxel; assay type: functional
[10] = Toxicity in BALB/c mouse xenografted with human KBV cells assessed as change in body weight at 10 mg/kg, ip qd administered presence of paclitaxel; assay type: organism-based; conditions: in vivo

SMILES	viability at 10 µM [1]	viability at 10 µM [2]	further results
CC1(C)CC[C@]2(C(=O)OCc3ccccc3F)CC[C@]3(C)C(=CC[C@@H]4[C@@]5(C)Cc6nccnc6[C@@](C)(CO)[C@@H]5CC[C@]43C)[C@@H]2C1	26.7%	107%	–
CC1(C)CC[C@]2(C(=O)OCc3ccccc3)CC[C@]3(C)C(=CC[C@@H]4[C@@]5(C)Cc6cnoc6[C@@](C)(CO)[C@@H]5CC[C@]43C)[C@@H]2C1	33.7%	140%	–
CC1(C)CC[C@]2(C(=O)OCc3ccccc3[N+](=O)[O-])CC[C@]3(C)C(=CC[C@@H]4[C@@]5(C)Cc6nccnc6[C@@](C)(CO)[C@@H]5CC[C@]43C)[C@@H]2C1	27.1%	103%	–
CC1(C)CC[C@]2(C(=O)OCc3ccccc3)CC[C@]3(C)C(=CC[C@@H]4[C@@]5(C)Cc6cnoc6[C@@](C)(COC(=O)CCC(=O)O)[C@@H]5CC[C@]43C)[C@@H]2C1	16.6%	34%	–
CC1(C)CC[C@]2(C(=O)OCc3ccccc3)CC[C@]3(C)C(=CC[C@@H]4[C@@]5(C)Cc6cnoc6[C@@](C)(COC(=O)CCC(=O)n6ccnc6)[C@@H]5CC[C@]43C)[C@@H]2C1	48.6%	96.9%	–
CCOC(=O)c1noc2c1C[C@@]1(C)[C@@H](CC[C@]3(C)[C@@H]1CC=C1[C@@H]4CC(C)(C)CC[C@]4(C(=O)O)CC[C@]13C)[C@]2(C)CO	92.1%	93.9%	–
CC1(C)CC[C@]2(C(=O)OCc3cccc(Br)c3)CC[C@]3(C)C(=CC[C@@H]4[C@@]5(C)Cc6nccnc6[C@@](C)(CO)[C@@H]5CC[C@]43C)[C@@H]2C1	19.6%	39.8%	–
CN1CCN(C(=O)CCC(=O)OC[C@]2(C)c3oncc3C[C@@]3(C)[C@H]2CC[C@]2(C)[C@@H]3CC=C3[C@@H]4CC(C)(C)CC[C@]4(C(=O)OCc4ccccc4)CC[C@]32C)CC1	32.5%	79.7%	–
CC1(C)CC[C@]2(C(=O)OCc3ccc(F)cc3)CC[C@]3(C)C(=CC[C@@H]4[C@@]5(C)Cc6nccnc6[C@@](C)(CO)[C@@H]5CC[C@]43C)[C@@H]2C1	83.3%	94.9%	–
Cc1ccccc1COC(=O)[C@]12CCC(C)(C)C[C@H]1C1=CC[C@@H]3[C@@]4(C)Cc5nccnc5[C@@](C)(CO)[C@@H]4CC[C@@]3(C)[C@]1(C)CC2	27.5%	99.7%	–
CC1(C)CC[C@]2(C(=O)OCc3ccccc3)CC[C@]3(C)C(=CC[C@@H]4[C@@]5(C)Cc6cnoc6[C@@](C)(COC(=O)CCC(=O)N6CCCCC6)[C@@H]5CC[C@]43C)[C@@H]2C1	79.2%	80.5%	–
Cc1cccc(COC(=O)[C@]23CCC(C)(C)C[C@H]2C2=CC[C@@H]4[C@@]5(C)Cc6nccnc6[C@@](C)(CO)[C@@H]5CC[C@@]4(C)[C@]2(C)CC3)c1	32.8%	124%	–
CC1(C)CC[C@]2(C(=O)OCc3ccccc3)CC[C@]3(C)C(=CC[C@@H]4[C@@]5(C)Cc6cnoc6[C@@](C)(COC(=O)CCC(=O)N6CCCC6)[C@@H]5CC[C@]43C)[C@@H]2C1	33.3%	99.4%	–
CC1(C)CC[C@]2(C(=O)OCc3ccccc3)CC[C@]3(C)C(=CC[C@@H]4[C@@]5(C)Cc6cnoc6[C@@](C)(COC(=O)CCC(=O)n6cccn6)[C@@H]5CC[C@]43C)[C@@H]2C1	63.1%	69.6%	–
CCOC(=O)c1noc2c1C[C@@]1(C)[C@@H](CC[C@]3(C)[C@@H]1CC=C1[C@@H]4CC(C)(C)CC[C@]4(C(=O)OCc4ccccc4)CC[C@]13C)[C@]2(C)CO	94.7%	102%	–
CC(=O)O[C@H]1C(=O)[C@@]2(C)[C@H]([C@H](OC(=O)c3ccccc3)[C@]3(O)C[C@H](OC(=O)[C@H](O)[C@@H](NC(=O)c4ccccc4)c4ccccc4)C(C)=C1C3(C)C)[C@]1(OC(C)=O)CO[C@@H]1C[C@@H]2O [PACLITAXEL]	–	–	Activity [3]: 22.63%; viability at 0.1 µM [4]: 98.7%
CC1(C)CC[C@]2(C(=O)OCc3ccc([N+](=O)[O-])cc3)CC[C@]3(C)C(=CC[C@@H]4[C@@]5(C)Cc6nccnc6[C@@](C)(CO)[C@@H]5CC[C@]43C)[C@@H]2C1	29.6%	91.9%	–
CC1(C)CC[C@]2(C(=O)O)CC[C@]3(C)C(=CC[C@@H]4[C@@]5(C)CC[C@H](O)[C@@](C)(CO)[C@@H]5CC[C@]43C)[C@@H]2C1 [HEDERAGENIN]	149%	–	–
CCN1CCN(C(=O)CCC(=O)OC[C@]2(C)c3oncc3C[C@@]3(C)[C@H]2CC[C@]2(C)[C@@H]3CC=C3[C@@H]4CC(C)(C)CC[C@]4(C(=O)OCc4ccccc4)CC[C@]32C)CC1	26.5%	67.5%	inhibition (INH) [5]: Dde; Activity (KBV [6]): Active; Activity (KBV [7]): Active; Activity [8]: 14.8%; Activity [9]: 56.24%; Activity [10]: Non-Toxic
CC1(C)CC[C@]2(C(=O)OCc3ccc(Br)cc3)CC[C@]3(C)C(=CC[C@@H]4[C@@]5(C)Cc6nccnc6[C@@](C)(CO)[C@@H]5CC[C@]43C)[C@@H]2C1	34.2%	109%	–
CC1(C)CC[C@]2(C(=O)OCc3ccccc3)CC[C@]3(C)C(=CC[C@@H]4[C@@]5(C)Cc6nccnc6[C@@](C)(CO)[C@@H]5CC[C@]43C)[C@@H]2C1	25.3%	–	–
CC1(C)CC[C@]2(C(=O)OCc3ccccc3)CC[C@]3(C)C(=CC[C@@H]4[C@@]5(C)Cc6cnoc6[C@@](C)(COC(=O)CCC(=O)N6CCOCC6)[C@@H]5CC[C@]43C)[C@@H]2C1	34.1%	89.6%	–
CC1(C)CC[C@]2(C(=O)OCc3cccc(F)c3)CC[C@]3(C)C(=CC[C@@H]4[C@@]5(C)Cc6nccnc6[C@@](C)(CO)[C@@H]5CC[C@]43C)[C@@H]2C1	35%	110%	–
CC1(C)CC[C@]2(C(=O)OCc3cccc(Cl)c3)CC[C@]3(C)C(=CC[C@@H]4[C@@]5(C)Cc6nccnc6[C@@](C)(CO)[C@@H]5CC[C@]43C)[C@@H]2C1	30.8%	92%	–
